The values below come from patent US8318762B2, “Pyrazolospiroketone acetyl-CoA carboxylase inhibitors” (Pfizer Inc., priority 2008, dated 2012).

The assay deals with T1, recombinant human ACC2 (Homo sapiens, UniProt O00763).
T1 construct: a full length Cytomax clone of ACC2 was purchased from Cambridge Bioscience Limited; made in house; host or cells: CHO cells (tetracycline induction, pcDNA5 FRT TO-TOPO); purified on a Softlink Soft Release Avidin column
As to the kind of experiment: Measurement of human ACC2 inhibition (recombinant hACC2 Transcreener ADP detection FP assay). Type of assay: biochemical. The settings on record: recombinant hACC2 transcreener assay; read-out: rhACC2 IC50. On the procedure:
[3] Measurement of human ACC2 inhibition. Human ACC2 inhibition was measured using purified recombinant human ACC2 (hrACC2). […] The ACC2 was expressed in CHO cells by tetracycline induction and harvested in 5 liters of DMEM/F12 with glutamine, biotin, hygromycin and blasticidin with 1 μg/mL tetracycline (Invitrogen, Carlsbad, Calif.). The conditioned medium containing ACC2 was then applied to a Softlink Soft Release Avidin column (Promega, Madison, Wis.) and eluted with 5 mM biotin. […] The purified ACC2 was dialyzed in 50 mM Tris, 200 mM NaCl, 4 mM DTT, 2 mM EDTA, and 5% glycerol. […] The final conditions for the assay were 50 mM HEPES, pH7.5, 5 mM MgCl2, 5 mM tripotassium citrate, 2 mM DTT, 0.5 mg/mL BSA, 30 μM acetyl-CoA, 50 μM ATP, and 8 mM KHCO3. Typically, a 10 μl reaction was run for 1 hour at room temperature, and 10 μl of Transcreener stop and detect buffer was added and incubated for an additional 1 hour.

The IC50 is the concentration needed to halve the response being measured.

T1 sequence (O00763 whole entry): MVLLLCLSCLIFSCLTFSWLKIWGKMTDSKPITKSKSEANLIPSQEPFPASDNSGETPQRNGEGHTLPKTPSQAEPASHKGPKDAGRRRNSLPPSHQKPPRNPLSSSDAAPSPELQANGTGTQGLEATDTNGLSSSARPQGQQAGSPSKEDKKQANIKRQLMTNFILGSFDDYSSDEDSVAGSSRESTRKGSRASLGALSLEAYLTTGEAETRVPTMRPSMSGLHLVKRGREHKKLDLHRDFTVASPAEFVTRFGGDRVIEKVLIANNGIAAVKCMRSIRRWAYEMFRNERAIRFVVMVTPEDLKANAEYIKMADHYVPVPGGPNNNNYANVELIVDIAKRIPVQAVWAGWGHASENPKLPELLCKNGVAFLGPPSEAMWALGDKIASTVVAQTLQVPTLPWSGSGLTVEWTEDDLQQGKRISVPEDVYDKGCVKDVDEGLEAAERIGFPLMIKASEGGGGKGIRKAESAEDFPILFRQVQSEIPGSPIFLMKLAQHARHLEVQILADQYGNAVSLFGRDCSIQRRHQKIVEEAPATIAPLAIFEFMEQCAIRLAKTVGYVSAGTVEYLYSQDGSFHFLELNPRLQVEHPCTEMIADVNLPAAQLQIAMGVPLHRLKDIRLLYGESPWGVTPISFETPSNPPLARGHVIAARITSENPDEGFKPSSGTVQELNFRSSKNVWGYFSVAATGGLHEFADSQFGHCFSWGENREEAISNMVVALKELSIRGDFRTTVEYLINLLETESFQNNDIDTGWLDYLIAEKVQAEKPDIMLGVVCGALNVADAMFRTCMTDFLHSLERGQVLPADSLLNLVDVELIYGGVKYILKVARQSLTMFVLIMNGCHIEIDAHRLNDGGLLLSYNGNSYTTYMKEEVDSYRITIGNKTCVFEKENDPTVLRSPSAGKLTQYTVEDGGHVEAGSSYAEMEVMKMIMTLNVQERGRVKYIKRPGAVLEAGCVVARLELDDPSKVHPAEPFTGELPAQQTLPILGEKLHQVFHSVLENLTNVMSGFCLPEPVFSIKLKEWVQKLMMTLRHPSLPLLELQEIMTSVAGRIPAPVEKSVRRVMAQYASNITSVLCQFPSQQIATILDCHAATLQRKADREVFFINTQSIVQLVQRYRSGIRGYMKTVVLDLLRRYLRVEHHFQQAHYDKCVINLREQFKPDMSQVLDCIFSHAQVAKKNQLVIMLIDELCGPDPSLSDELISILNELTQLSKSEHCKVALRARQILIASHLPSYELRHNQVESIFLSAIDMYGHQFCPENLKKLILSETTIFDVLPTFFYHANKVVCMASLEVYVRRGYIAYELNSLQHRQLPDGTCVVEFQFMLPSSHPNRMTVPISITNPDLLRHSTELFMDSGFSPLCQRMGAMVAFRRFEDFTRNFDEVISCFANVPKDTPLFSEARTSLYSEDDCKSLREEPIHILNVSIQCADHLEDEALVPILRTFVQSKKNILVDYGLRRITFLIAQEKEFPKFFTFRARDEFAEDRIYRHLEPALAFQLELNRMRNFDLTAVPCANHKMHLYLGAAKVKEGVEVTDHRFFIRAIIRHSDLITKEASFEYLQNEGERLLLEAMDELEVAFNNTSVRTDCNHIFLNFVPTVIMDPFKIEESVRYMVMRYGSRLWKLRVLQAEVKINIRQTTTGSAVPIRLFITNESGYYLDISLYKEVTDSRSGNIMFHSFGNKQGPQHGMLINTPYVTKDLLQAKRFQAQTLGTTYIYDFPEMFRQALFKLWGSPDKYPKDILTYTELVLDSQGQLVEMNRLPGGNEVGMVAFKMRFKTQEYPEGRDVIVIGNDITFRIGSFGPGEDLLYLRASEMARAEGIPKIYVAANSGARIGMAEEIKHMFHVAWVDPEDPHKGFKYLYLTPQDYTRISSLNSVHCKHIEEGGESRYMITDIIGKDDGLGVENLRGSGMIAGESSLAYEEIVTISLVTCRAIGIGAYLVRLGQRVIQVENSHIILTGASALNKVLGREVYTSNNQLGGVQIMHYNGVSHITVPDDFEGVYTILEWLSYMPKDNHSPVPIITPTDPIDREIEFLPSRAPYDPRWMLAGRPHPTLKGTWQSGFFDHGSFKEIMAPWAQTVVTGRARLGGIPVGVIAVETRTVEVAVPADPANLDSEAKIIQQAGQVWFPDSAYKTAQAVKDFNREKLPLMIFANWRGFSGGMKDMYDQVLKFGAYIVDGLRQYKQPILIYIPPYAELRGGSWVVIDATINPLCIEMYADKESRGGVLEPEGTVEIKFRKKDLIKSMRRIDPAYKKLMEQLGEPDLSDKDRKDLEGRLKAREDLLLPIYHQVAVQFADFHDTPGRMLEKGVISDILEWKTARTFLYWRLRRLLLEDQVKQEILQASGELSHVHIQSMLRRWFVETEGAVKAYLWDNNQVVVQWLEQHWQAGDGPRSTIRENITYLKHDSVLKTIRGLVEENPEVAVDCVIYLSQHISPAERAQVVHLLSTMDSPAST

Regarding `Cc1n[nH]c2ccc(C(=O)N3CCC4(CC3)CC(=O)c3nn(C5CCC5)cc3O4)cc12` [1.089], the half-inhibitory concentration (IC50) was 22 nM.
The same measure for `Cc1n[nH]c2ccc(C(=O)N3CCC4(CC3)CC(=O)c3nn(C(C)(C)C)c(C)c3O4)cc12` [1.090]: 23 nM; for `Cc1n[nH]c2ccc(C(=O)N3CCC4(CC3)CC(=O)c3nn(C(C)C)c(C)c3O4)cc12` [1.091]: 15 nM.
The same measure for `CCc1n[nH]c2ccc(C(=O)N3CCC4(CC3)CC(=O)c3nn(CC)cc3O4)cc12` [1.093]: 18 nM.
The figure for `CCc1n[nH]c2ccc(C(=O)N3CCC4(CC3)CC(=O)c3nn(C)cc3O4)cc12` [1.095] is 397 nM.
As to `CCc1n[nH]c2ccc(C(=O)N3CCC4(CC3)CC(=O)c3nn(C(C)(C)C)cc3O4)cc12` [1.096], the half-maximal inhibitory concentration (IC50) came to 12 nM.
The same measure for `CCc1nn(C)c2c(OC)cc(C(=O)N3CCC4(CC3)CC(=O)c3nn(CC)cc3O4)cc12` [1.099]: 20 nM.
The same measure for `CCc1cc(C(=O)N2CCC3(CC2)CC(=O)c2nn(CC)cc2O3)cc2c(C)n[nH]c12` [1.100]: 36 nM; for `CCc1n[nH]c2c(Cl)cc(C(=O)N3CCC4(CC3)CC(=O)c3nn(CC)cc3O4)cc12` [1.101]: 45 nM.
In the case of `Cc1n[nH]c2c(Cl)cc(C(=O)N3CCC4(CC3)CC(=O)c3nn(C(C)C)cc3O4)cc12` [1.102], the 50% inhibitory concentration (IC50) came to 5 nM.
The figure for `CC(C)(C)n1cc2c(n1)C(=O)CC1(CCN(C(=O)c3ccc4[nH]nc(Cl)c4c3)CC1)O2` [1.103] is 5 nM; for `Cc1cc(C(=O)N2CCC3(CC2)CC(=O)c2nn(C(C)C)cc2O3)cc2c(Cl)n[nH]c12` [1.104] it is 4 nM.
The same measure for `Cc1cc(C(=O)N2CCC3(CC2)CC(=O)c2nn(C(C)(C)C)cc2O3)cc2c(Cl)n[nH]c12` [1.105]: 2 nM.
The same measure for `Cc1cc(C(=O)N2CCC3(CC2)CC(=O)c2nn(C4CCC4)cc2O3)cc2c(Cl)n[nH]c12` [1.106]: 8 nM.
On to `Cc1cc(C(=O)N2CCC3(CC2)CC(=O)c2nn(C4CCCC4)cc2O3)cc2c(Cl)n[nH]c12` [1.107], for which the half-inhibitory concentration (IC50) came to 3 nM.
With `CCn1cc2c(n1)C(=O)CC1(CCN(C(=O)c3cc(C)c4[nH]nc(Cl)c4c3)CC1)O2` [1.108], the IC50 was 19 nM.
Consider `CCCn1cc2c(n1)C(=O)CC1(CCN(C(=O)c3cc(C)c4[nH]nc(Cl)c4c3)CC1)O2` [1.109], for which the half-maximal inhibitory concentration (IC50) was determined as 12 nM.
The figure for `Cc1n[nH]c2c(Cl)cc(C(=O)N3CCC4(CC3)CC(=O)c3nn(C(C)(C)C)cc3O4)cc12` [1.110] is 3 nM; for `CCn1nc2c(c1C)OC1(CCN(C(=O)c3cc(Cl)c4[nH]nc(C)c4c3)CC1)CC2=O` [1.111] it is 12 nM; for `CCn1nc2c(c1C)OC1(CCN(C(=O)c3ccc4c(cnn4C)c3)CC1)CC2=O` [1.112] it is 79 nM.
The same measure for `CCc1cc(C(=O)N2CCC3(CC2)CC(=O)c2nn(CC)c(C)c2O3)cc2c(C)n[nH]c12` [1.113]: 10 nM.
For `CCOc1cc(C(=O)N2CCC3(CC2)CC(=O)c2nn(CC)cc2O3)cc2c(C)n[nH]c12` [1.115], the IC50 worked out at 12 nM.
The figure for `CCOc1cc(C(=O)N2CCC3(CC2)CC(=O)c2nn(C(C)(C)C)cc2O3)cc2c(C)n[nH]c12` [1.116] is 5 nM; for `CCOc1cc(C(=O)N2CCC3(CC2)CC(=O)c2nn(C(C)(C)C)cc2O3)cc2c(CC)n[nH]c12` [1.117] it is 4 nM; for `CCOc1cc(C(=O)N2CCC3(CC2)CC(=O)c2nn(CC)c(C)c2O3)cc2c(C)n[nH]c12` [1.118] it is 27 nM.
With `CCOc1cc(C(=O)N2CCC3(CC2)CC(=O)c2nn(C(C)C)cc2O3)cc2c(C)n[nH]c12` [1.120], the IC50 is 6 nM.
Turning to `CCOc1cc(C(=O)N2CCC3(CC2)CC(=O)c2nn(C(C)C)cc2O3)cc2c(CC)n[nH]c12` [1.121], the IC50 is 6 nM.
The figure for `CCOc1cc(C(=O)N2CCC3(CC2)CC(=O)c2nn(C(C)C)c(C)c2O3)cc2cn[nH]c12` [1.122] is 5 nM; for `Cc1c2c(nn1C)C(=O)CC1(CCN(C(=O)c3ccc4c(cnn4C)c3)CC1)O2` [1.124] it is over 3000 nM; for `CCc1n[nH]c2c(C)cc(C(=O)N3CCC4(CC3)CC(=O)c3nn(CC)c(C)c3O4)cc12` [1.125] it is 7 nM.
The figure for `Cc1n[nH]c2c(C)cc(C(=O)N3CCC4(CC3)CC(=O)c3nn(C5CCC5)c(C)c3O4)cc12` [1.126] is 3 nM.
The figure for `COc1cc(C(=O)N2CCC3(CC2)CC(=O)c2nn(C4CCC4)c(C)c2O3)cc2cn[nH]c12` [1.127] is 20 nM; for `Cc1cc(C(=O)N2CCC3(CC2)CC(=O)c2nn(C4CCC4)c(C)c2O3)cc2cn[nH]c12` [1.128] it is 8 nM.
For the molecule `Cc1n[nH]c2c(C)cc(C(=O)N3CCC4(CC3)CC(=O)c3nn(CC(C)C)c(C)c3O4)cc12` [1.129], the IC50 stood at 5 nM.
The same measure for `Cc1cc(C(=O)N2CCC3(CC2)CC(=O)c2nn(CC(C)C)c(C)c2O3)cc2cn[nH]c12` [1.130]: 13 nM; for `COc1cc(C(=O)N2CCC3(CC2)CC(=O)c2nn(CC(C)C)c(C)c2O3)cc2cn[nH]c12` [1.131]: 19 nM; for `COc1cc(C(=O)N2CCC3(CC2)CC(=O)c2nn(CC(C)C)c(C)c2O3)cc2c(C)n[nH]c12` [1.132]: 13 nM.
Regarding `Cc1c2c(nn1C(C)C)C(=O)CC1(CCN(C(=O)c3cc(Cl)c4[nH]ncc4c3)CC1)O2` [1.133], the IC50 stood at 4 nM.
The same measure for `Cc1n[nH]c2c(C)cc(C(=O)N3CCC4(CC3)CC(=O)c3nn(CC(C)C)cc3O4)cc12` [1.134]: 10 nM.
The same measure for `CCC(C)n1cc2c(n1)C(=O)CC1(CCN(C(=O)c3cc(C)c4[nH]nc(C)c4c3)CC1)O2` (stereo not shown) [1.140]: 2 nM.
In the case of `CCC(C)n1cc2c(n1)C(=O)CC1(CCN(C(=O)c3ccc4[nH]ncc4c3)CC1)O2` (stereo not shown) [1.142], the IC50 stood at 20 nM.
Take `Cc1n[nH]c2c(C)cc(C(=O)N3CCC4(CC3)CC(=O)c3nn(C5CC5)cc3O4)cc12` [1.143]: the concentration for half-maximal inhibition (IC50) is 7 nM.
With `Cc1cc(C(=O)N2CCC3(CC2)CC(=O)c2nn(C4CC4)cc2O3)cc2cn[nH]c12` [1.144], the IC50 came to 19 nM.
The same measure for `Cn1ncc2cc(C(=O)N3CCC4(CC3)CC(=O)c3nn(C(C)(C)C)cc3O4)ccc21` [1.145]: 26 nM.
As to `Cc1n[nH]c2cc(C(=O)N3CCC4(CC3)CC(=O)c3nn(C(C)C)cc3O4)ccc12` [2.005], the IC50 turned out to be 33 nM.
`CC(C)n1cc2c(n1)C(=O)CC1(CCN(C(=O)c3cc(Cl)c4cn[nH]c4c3)CC1)O2` [2.006]: the IC50 worked out at 13 nM.
The same measure for `CCc1nn(C)c2cc(C(=O)N3CCC4(CC3)CC(=O)c3nn(C(C)C)cc3O4)ccc12` [2.007]: 14 nM; for `CCc1nn(C)c2cc(C(=O)N3CCC4(CC3)CC(=O)c3nn(CC)cc3O4)ccc12` [2.008]: 81 nM; for `CC(C)(C)n1cc2c(n1)C(=O)CC1(CCN(C(=O)c3cc(Cl)c4cn[nH]c4c3)CC1)O2` [2.009]: 7 nM.
The same measure for `Cc1n[nH]c2cc(C(=O)N3CCC4(CC3)CC(=O)c3nn(C(C)(C)C)cc3O4)ccc12` [2.010]: 28 nM; for `CCn1nc2c(c1C)OC1(CCN(C(=O)c3ccc4cn[nH]c4c3)CC1)CC2=O` [2.011]: 82 nM; for `CC(C)(C)n1cc2c(n1)C(=O)CC1(CCN(C(=O)c3ccc4cn[nH]c4c3)CC1)O2` [2.012]: 7 nM.
The figure for `Cn1ncc2ccc(C(=O)N3CCC4(CC3)CC(=O)c3nn(C(C)(C)C)cc3O4)cc21` [2.013] is 19 nM; for `CC(C)(C)n1cc2c(n1)C(=O)CC1(CCN(C(=O)c3cc(F)c4cn[nH]c4c3)CC1)O2` [2.014] it is 28 nM; for `CC(C)n1cc2c(n1)C(=O)CC1(CCN(C(=O)c3cc(F)c4cn[nH]c4c3)CC1)O2` [2.015] it is 136 nM.
`CCn1nc2c(c1C)OC1(CCN(C(=O)c3cc(F)c4cn[nH]c4c3)CC1)CC2=O` [2.016]: the IC50 was 200 nM.
The figure for `CC(C)(C)n1cc2c(n1)C(=O)CC1(CCN(C(=O)c3ccc4cn[nH]c4c3F)CC1)O2` [2.017] is 52 nM; for `Cc1cc(C(=O)N2CCC3(CC2)CC(=O)c2nn(C(C)(C)C)cc2O3)cc2[nH]ncc12` [2.018] it is 33 nM.
The same measure for `COc1c(C(=O)N2CCC3(CC2)CC(=O)c2nn(C(C)(C)C)cc2O3)ccc2cn[nH]c12` [2.020]: 27 nM; for `CCn1nc2c(c1C)OC1(CCN(C(=O)c3ccc4cn[nH]c4c3OC)CC1)CC2=O` [2.021]: 70 nM; for `COc1c(C(=O)N2CCC3(CC2)CC(=O)c2nn(C(C)C)cc2O3)ccc2cn[nH]c12` [2.022]: 47 nM.
The same measure for `COc1cc(C(=O)N2CCC3(CC2)CC(=O)c2nn(C(C)(C)C)cc2O3)cc2[nH]ncc12` [2.023]: 3 nM.
For the molecule `CCn1cc2c(n1)C(=O)CC1(CCN(C(=O)c3ccc4c(C)n[nH]c4c3)CC1)O2` [2.024], the concentration for half-maximal inhibition (IC50) came to 60 nM.
With `CCn1nc2c(c1C)OC1(CCN(C(=O)c3ccc4c(C)n[nH]c4c3)CC1)CC2=O` [2.025], the half-inhibitory concentration (IC50) was 44 nM.
The figure for `Cc1nc2c(C)cc(C(=O)N3CCC4(CC3)CC(=O)c3nn(C(C)C)cc3O4)cc2[nH]1` [3.001] is 28 nM.
The figure for `CCn1nc2c(c1C)OC1(CCN(C(=O)c3cc(C)c4nc(C)[nH]c4c3)CC1)CC2=O` [3.002] is 54 nM; for `CCn1cc2c(n1)C(=O)CC1(CCN(C(=O)c3cc(C)c4nc(C)[nH]c4c3)CC1)O2` [3.004] it is 111 nM.
